Source: ChEMBL document CHEMBL6109078, “Pyrylium derivatives as outer membrane permeabilizers against MDR gram-negative bacteria via multi-target mode of action” (Eur J Med Chem, 2025)
Active and inactive are the calls of the source. No cut-off for these calls is given here.

Experiments:
[1] = system: Escherichia coli; assay: Antibacterial activity against Escherichia coli CG-4 expressing MCR-1 and NDM-1 assessed as inhibition of bacterial growth by CLSI protocol based method; type: functional
[2] = system: Escherichia coli; assay: Synergistic antibacterial activity against Escherichia coli ATCC 25922 assessed as inhibition of bacterial growth in presence of polymyxin B by checkerboard assay; type: functional
[3] = system: Pseudomonas aeruginosa; assay: Synergistic antibacterial activity against Pseudomonas aeruginosa assessed as inhibition of bacterial growth in presence of polymyxin B by checkerboard assay; type: functional, organism-based
[4] = system: Klebsiella pneumoniae; assay: Antibacterial activity against Klebsiella pneumoniae BAA ATCC 1706 assessed as inhibition of bacterial growth by CLSI protocol based method; type: functional
[5] = system: Klebsiella pneumoniae; assay: Antibacterial activity against Klebsiella pneumoniae ATCC 700603 assessed as inhibition of bacterial growth by CLSI protocol based method; type: functional
[6] = system: Acinetobacter baumannii; assay: Synergistic antibacterial activity against multi-drug resistant Acinetobacter baumannii clinical isolate 1 assessed as fractional inhibitory concentration index in presence of amikacin by checkerboard assay; type: functional
[7] = system: Acinetobacter baumannii; assay: Synergistic antibacterial activity against multi-drug resistant Acinetobacter baumannii clinical isolate 5 assessed as inhibition of bacterial growth in presence of polymyxin B by checkerboard assay; type: functional
[8] = system: Escherichia coli; assay: Synergistic antibacterial activity against Escherichia coli ATCC 25922 assessed as inhibition of bacterial growth by measuring polymyxin B MIC by checkerboard assay; type: functional
[9] = system: Pseudomonas aeruginosa; assay: Synergistic antibacterial activity against Pseudomonas aeruginosa assessed as inhibition of bacterial growth in presence of aminoglycoside by checkerboard assay; type: functional, organism-based
[10] = system: Escherichia coli; assay: Synergistic antibacterial activity against multi-drug resistant Escherichia coli clinical isolate 1 assessed as fractional inhibitory concentration index in presence of gentamycin by checkerboard assay; type: functional
[11] = system: Escherichia coli; assay: Antibacterial activity against Escherichia coli ATCC 25922 assessed as inhibition of bacterial growth by measuring decrease in bacterial count at 6.25 to 50 microg/ml measured after 12 hrs by time-kill kinetics analysis; type: functional; conditions: dose 6.25-50 µg/ml
[12] = system: Escherichia coli; assay: Synergistic antibacterial activity against multi-drug resistant Escherichia coli clinical isolate 1 assessed as fractional inhibitory concentration index in presence of polymyxin B by checkerboard assay; type: functional
[13] = system: Escherichia coli; assay: Synergistic antibacterial activity against Escherichia coli ATCC 25922 assessed as fractional inhibitory concentration index in presence of amikacin by checkerboard assay; type: functional
[14] = system: Escherichia coli; assay: Synergistic antibacterial activity against Escherichia coli CG-4 expressing MCR-1 and NDM-1 assessed as inhibition of bacterial growth by measuring polymyxin B MIC by checkerboard assay; type: functional
[15] = system: Acinetobacter baumannii; assay: Synergistic antibacterial activity against multi-drug resistant Acinetobacter baumannii clinical isolate 5 assessed as fractional inhibitory concentration index in presence of polymyxin B by checkerboard assay; type: functional
[16] = system: Acinetobacter baumannii; assay: Antibacterial activity against multi-drug resistant Acinetobacter baumannii clinical isolate 51 assessed as inhibition of bacterial growth by CLSI protocol based method; type: functional
[17] = system: Escherichia coli; assay: Synergistic antibacterial activity against Escherichia coli ATCC 35218 assessed as inhibition of bacterial growth by measuring polymyxin B MIC by checkerboard assay; type: functional
[18] = system: Acinetobacter baumannii; assay: Antibacterial activity against multi-drug resistant Acinetobacter baumannii clinical isolate 43 assessed as inhibition of bacterial growth by CLSI protocol based method; type: functional
[19] = system: Bacteria; assay: Binding affinity to His-tagged LptA (unknown origin) extracted from Escherichia coli BL21 (DE3) cells by BLI analysis
[20] = system: Acinetobacter baumannii; assay: Antibacterial activity against Acinetobacter baumannii ATCC 19606 assessed as inhibition of bacterial growth by CLSI protocol based method; type: functional
[21] = system: Escherichia coli; assay: Antibacterial activity against multi-drug resistant Escherichia coli clinical isolate 1 assessed as inhibition of bacterial growth by CLSI protocol based method; type: functional
[22] = system: Acinetobacter baumannii; assay: Synergistic antibacterial activity against multi-drug resistant Acinetobacter baumannii clinical isolate 5 assessed as fractional inhibitory concentration index in presence of amikacin by checkerboard assay; type: functional
[23] = system: Escherichia coli; assay: Synergistic antibacterial activity against Escherichia coli ATCC 35218 assessed as fractional inhibitory concentration index in presence of gentamycin by checkerboard assay; type: functional
[24] = system: Acinetobacter baumannii; assay: Antibacterial activity against Acinetobacter baumannii ATCC 19606 assessed as inhibition of bacterial growth by measuring decrease in bacterial count at 6.25 to 50 microg/ml measured after 12 hrs by time-kill kinetics analysis; type: functional; conditions: dose 6.25-50 µg/ml
[25] = system: Acinetobacter baumannii; assay: Synergistic antibacterial activity against multi-drug resistant Acinetobacter baumannii clinical isolate 43 assessed as fractional inhibitory concentration index in presence of gentamycin by checkerboard assay; type: functional
[26] = system: Acinetobacter baumannii; assay: Antibacterial activity against multi-drug resistant Acinetobacter baumannii clinical isolate 10 assessed as inhibition of bacterial growth by CLSI protocol based method; type: functional
[27] = system: Cell membrane; assay: Induction of outer membrane damage in Escherichia coli ATCC 25922 assessed as local damage at 12.5 microg/ml incubated for 1 hrs by TEM analysis; conditions: dose 12.5 µg/ml
[28] = system: Acinetobacter baumannii; assay: Antibacterial activity against Acinetobacter baumannii ATCC 19606 assessed as bacterial killing at 100 microg/ml measured within 4 to 12 hrs by time-kill kinetics analysis; type: functional; conditions: dose 100 µg/ml; time 4-12 hrs
[29] = system: Escherichia coli; assay: Induction of morphological changes in Escherichia coli ATCC 25922 assessed as appearance of filamentous bacterial cells at 6.25 microg/ml incubated for 1 hrs by optical microscopic analysis; type: functional, organism-based; conditions: dose 6.25 µg/ml
[30] = Binding affinity to His-tagged LptC (unknown origin) extracted from Escherichia coli BL21 (DE3) cells assessed as dissociation constant by BLI analysis; design: species or system Bacteria
[31] = Binding affinity to His-tagged LptA (unknown origin) extracted from Escherichia coli BL21 (DE3) cells assessed as dissociation constant by BLI analysis; design: species or system Bacteria
[32] = system: Acinetobacter baumannii; assay: Synergistic antibacterial activity against multi-drug resistant Acinetobacter baumannii clinical isolate 14 assessed as fractional inhibitory concentration index in presence of polymyxin B by checkerboard assay; type: functional
[33] = system: Escherichia coli; assay: Antibacterial activity against Escherichia coli ATCC 25922 infected in Galleria mellonella larvae assessed as survival rate at 50 microg/ml measured 96 hrs post-inoculation relative to control; type: functional
[34] = system: Cell membrane; assay: Induction of outer membrane damage in Escherichia coli ATCC 25922 assessed as local fractures at 12.5 microg/ml incubated for 1 hrs by TEM analysis; conditions: dose 12.5 µg/ml
[35] = system: Cell membrane; assay: Induction of outer membrane damage in Escherichia coli ATCC 25922 assessed as accumulation of membrane-like structures near inner membrane at 12.5 microg/ml incubated for 1 hrs by TEM analysis; conditions: dose 12.5 µg/ml
[36] = system: Cell membrane; assay: Induction of outer membrane damage in Escherichia coli ATCC 25922 assessed as loose outer membrane with decrease in electron cloud density at 12.5 microg/ml incubated for 1 hrs by TEM analysis; conditions: dose 12.5 µg/ml
[37] = system: Escherichia coli; assay: Antibacterial activity against Escherichia coli ATCC 25922 assessed as inhibition of bacterial growth by measuring fold change in MIC incubated for 16 to 18 hrs in presence of LPS; type: functional; conditions: time 16-18 hrs
[38] = system: Escherichia coli; assay: Induction of morphological changes in Escherichia coli ATCC 25922 assessed as appearance of longer bacterial cells at 6.25 microg/ml incubated for 1 hrs by optical microscopic analysis; type: functional, organism-based; conditions: dose 6.25 µg/ml
[39] = system: Escherichia coli; assay: Antibacterial activity against Escherichia coli ATCC 25922 assessed as inhibition of bacterial growth by measuring fold increase in MIC incubated for 16 to 18 hrs in presence of Mg2+; type: functional; conditions: time 16-18 hrs

With CN1CCOc2cc(/C=C/c3cc(C(C)(C)C)[o+]c(C(C)(C)C)c3)ccc21.O=S(=O)([O-])C(F)(F)F the MIC [1] was 25 µg/mL, the MIC [2] was 12.5 µg/mL and the Activity [3] was “inactive”. The MIC [4] was > 100 µg/mL, the MIC [5] was > 100 µg/mL and the “fractional inhibitory concentration index (FICI)” value [6] was 0.125. For the same compound, the MIC [7] was 6.25 µg/mL, the MIC [8] was 7.8 10^-4 ug/ml and the Activity [9] was “inactive”. The “fractional inhibitory concentration index (FICI)” value [10] was 0.125, the Activity [11] was <6 log10CFU/ml and the “fractional inhibitory concentration index (FICI)” value [12] was 0.047. The “fractional inhibitory concentration index (FICI)” value [13] was 0.125, the MIC [14] was 0.031 µg/mL and the “fractional inhibitory concentration index (FICI)” value [15] was 0.25. For the same compound, the MIC [16] was 50 µg/mL, the MIC [17] was 63 10^-4 ug/ml and the MIC [18] was 100 µg/mL. For the same compound, the Activity [19] was “inactive”, the MIC [20] was 50 µg/mL and the MIC [21] was ≥ 100 µg/mL. For the same compound, the “fractional inhibitory concentration index (FICI)” value [22] was 0.125, the “fractional inhibitory concentration index (FICI)” value [23] was 0.125 and the Activity [24] was <6 log10CFU/ml. For the same compound, the “fractional inhibitory concentration index (FICI)” value [25] was 0.125 and the MIC [26] was 50 µg/mL.
With CC(C)(C)c1cc(/C=C/c2ccc(N3CCCC3)cc2)cc(C(C)(C)C)[o+]1.O=S(=O)([O-])C(F)(F)F the MIC [1] was 6.25 µg/mL, the MIC [2] was 1.56 µg/mL and the Activity [3] was “inactive”. For the same compound, the MIC [4] was > 100 µg/mL, the Activity [27] was “Active” and the Activity [28] was 100%. The MIC [5] was > 100 µg/mL, the “fractional inhibitory concentration index (FICI)” value [6] was 0.125 and the MIC [7] was 1.56 µg/mL. The Activity [29] was “Active”, the MIC [8] was 31.25 10^-4 ug/ml and the Kd [30] was 63.7 µM. For the same compound, the Activity [9] was “inactive”, the “fractional inhibitory concentration index (FICI)” value [10] was 0.125 and the Activity [11] was <6 log10CFU/ml. The Kd [31] was 15 µM, the “fractional inhibitory concentration index (FICI)” value [12] was 0.063 and the “fractional inhibitory concentration index (FICI)” value [32] was 0.313. For the same compound, the “fractional inhibitory concentration index (FICI)” value [13] was 0.125, the MIC [14] was 0.39 µg/mL and the “fractional inhibitory concentration index (FICI)” value [15] was 0.313. For the same compound, the survival at 50 µg/mL [33] was 40%, the MIC [16] was 12.5 µg/mL and the Activity [34] was “Active”. For the same compound, the Activity [35] was “Active”, the MIC [17] was 63 10^-4 ug/ml and the MIC [18] was 12.5 µg/mL. For the same compound, the Activity [19] was “Dose-dependent-effect”, the MIC [20] was 12.5 µg/mL and the Activity [36] was “Active”. For the same compound, the MIC [21] was ≥ 100 µg/mL, the “fold change (FC)” value [37] was 2 and the “fractional inhibitory concentration index (FICI)” value [22] was 0.125. For the same compound, the “fractional inhibitory concentration index (FICI)” value [23] was 0.125, the Activity [38] was “Active” and the Activity [24] was <6 log10CFU/ml. The “fold change (FC)” value [39] was 2, the “fractional inhibitory concentration index (FICI)” value [25] was 0.125 and the MIC [26] was 6.25 µg/mL.
For CCN(CC)c1ccc(/C=C/c2cc(C(C)(C)C)[o+]c(C(C)(C)C)c2)cc1.O=S(=O)([O-])C(F)(F)F, the MIC [1] was 12.5 µg/mL, the MIC [2] was 1.56 µg/mL and the Activity [3] was “inactive”. For the same compound, the MIC [4] was 12.5 µg/mL, the Activity [27] was “Active” and the Activity [28] was 100%. The MIC [5] was > 100 µg/mL, the “fractional inhibitory concentration index (FICI)” value [6] was 0.125 and the MIC [7] was 1.56 µg/mL. For the same compound, the Activity [29] was “Active”, the MIC [8] was 7.8 10^-4 ug/ml and the Kd [30] was 0.49 µM. The Activity [9] was “inactive”, the “fractional inhibitory concentration index (FICI)” value [10] was 0.125 and the Activity [11] was <6 log10CFU/ml. For the same compound, the Kd [31] was 0.48 µM, the “fractional inhibitory concentration index (FICI)” value [12] was 0.031 and the “fractional inhibitory concentration index (FICI)” value [32] was 0.141. For the same compound, the “fractional inhibitory concentration index (FICI)” value [13] was 0.125, the MIC [14] was 0.78 µg/mL and the “fractional inhibitory concentration index (FICI)” value [15] was 0.188. For the same compound, the survival at 50 µg/mL [33] was 40%, the MIC [16] was 12.5 µg/mL and the Activity [34] was “Active”. The Activity [35] was “Active”, the MIC ([17]; Escherichia coli, ATCC 35218, read-out: MIC) was 0.013 µg/mL and the MIC [18] was 12.5 µg/mL. The Activity [19] was “Dose-dependent-effect”, the MIC [20] was 12.5 µg/mL and the Activity [36] was “Active”. The MIC [21] was ≥ 100 µg/mL, the “fold change (FC)” value [37] was 2 and the “fractional inhibitory concentration index (FICI)” value [22] was 0.125. For the same compound, the “fractional inhibitory concentration index (FICI)” value [23] was 0.125, the Activity [38] was “Active” and the Activity [24] was <6 log10CFU/ml. For the same compound, the “fold change (FC)” value [39] was 2, the “fractional inhibitory concentration index (FICI)” value [25] was 0.125 and the MIC [26] was 12.5 µg/mL.
